Like-named read-outs stand apart in the source and are kept apart here.
What was measured:
[1] = tested on: EP13 multi protease inhibitor resistant virus; assay: Anti-viral activity against resistant virus EP13 in MT4 cells; assay type: cell-based, HIV-1
Description: (§1) Exponentially growing MT4 cells were harvested and centrifuged at 1000 rpm for 10 min in a Jouan centrifuge (model CR 4 12). […] Cell aliquots were infected by the addition of HIV-1 (strain IIIB) diluted to give a viral multiplicity of infection of 100×TCID50. […] Cell infection was allowed to proceed for 1 hr at 37° in a tissue culture incubator with humidified 5% CO2 atmosphere. After the 1 hr incubation the virus/cell suspensions were diluted 6-fold with fresh medium, and 125 μl of the cell suspension was added to each well of the plate containing pre-diluted compound. Plates were then placed in a tissue culture incubator with humidified 5% CO2 for 5 days. At the end of the incubation period, 27 μl of 5% Nonidet-40 was added to each well of the incubation plate. After thorough mixing with a Costar multitip pipetter, 60 μl of the mixture was transferred to filter-bottomed 96-well plates. The plates were analyzed in an automated assay instrument (Screen Machine, Idexx Laboratories). The assay makes use of a propidium iodide dye to estimate the DNA content of each well.
(§2) Anti-Viral Activity Against Resistant Viruses
EP13 and DS45701, two multi protease inhibitor resistant viruses were used to assess potency against mutant viruses. These viruses contain the following mutations relative to the consensus sequence of wild type virus:
EP13: Protease amino acid sequence: M46I, L63P, A71V, V82F/L, I84V; No reverse transcriptase mutations.

[2] = tested on: HIV-1 (strain IIIB); assay: Antiviral activity assay in MT4 cells (propidium iodide based); assay type: cell-based; details: wild type HIV-1 virus, MT4 cells, read-out: Wildtype virus - IC50
In short: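 Compound serial dilutions in RPMI/FCS received MT4 cells pre-infected 1 hr at 37°C with HIV-1 IIIB at 100×TCID50. After 5 days' culture and Nonidet-40 lysis, well DNA content was measured by propidium iodide dye; mock-infected cells served as control.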

[3] = tested on: D545701-14 multi protease inhibitor resistant virus; assay: Anti-viral activity against resistant virus D545701-14 in MT4 cells; assay type: cell-based, HIV-1
Description: as §1, §2
EP13 and DS45701, two multi protease inhibitor resistant viruses were used to assess potency against mutant viruses. These viruses contain the following mutations relative to the consensus sequence of wild type virus: […]

[4] = Human immunodeficiency virus 1, MT4, read-out: EP13 mutant IC50, EP13 multi protease inhibitor resistant virus, MT4 cells
[5] = Human immunodeficiency virus 1, IIIB
[6] = Human immunodeficiency virus 1, MT4, read-out: D545701-14 mutant - IC50, D545701-14 multi protease inhibitor resistant virus, MT4 cells
[7] = Human immunodeficiency virus 1, MT4, read-out: EP13 mutant IC50
[8] = Human immunodeficiency virus 1, MT4, read-out: D545701-14 mutant - IC50
[9] = EP13 multi protease inhibitor resistant virus, MT4 cells, read-out: EP13 mutant IC50
[10] = D545701-14 multi protease inhibitor resistant virus, MT4 cells, read-out: D545701-14 mutant - IC50

Row | Structure (SMILES) | IC50 [1, 4] [µM] | IC50 [2, 5] [µM] | IC50 [3, 6] [µM] | IC50 [1, 7] [µM] | IC50 [3, 8] [µM] | IC50 [1, 9] [µM] | IC50 [2] [µM] | IC50 [3, 10] [µM]
1 | CC(C)CN(C[C@@H](O)[C@H](Cc1ccc(OCCCNC(=O)OC(C)(C)C)cc1)NC(=O)O[C@H]1CO[C@H]2OCC[C@H]21)S(=O)(=O)c1ccc2c(c1)OCO2 [Compound 221, (3R,3aS,6aR)-hexahydrofuro[2,3-b]furan-3-yl (1S,2R)-3-[(1,3-benzodioxol-5-ylsulfonyl)(isobutyl)amino]-1-(4-{3-[(tert-butoxycarbonyl)amino]propoxy}benzyl)-2-hydroxypropylcarbamate] | 0.001 to 0.01 | 0.001 to 0.01 | 0.001 to 0.01 |  |  |  |  | 
2 | CC(C)CN(C[C@@H](O)[C@H](Cc1ccc(OCCCCNC(=O)OC(C)(C)C)cc1)NC(=O)O[C@H]1CO[C@H]2OCC[C@H]21)S(=O)(=O)c1ccc2c(c1)OCO2 [Compound 223, (3R,3aS,6aR)-hexahydrofuro[2,3-b]furan-3-yl (1S,2R)-3-(1,3-benzodioxol-5-ylsulfonyl)(isobutyl)amino-1-(4-{4-[(tert-butoxycarbonyl)amino]butoxy}benzyl)-2-hydroxypropylcarbamate] | 0.001 to 0.01 | 0.001 to 0.01 | 0.001 to 0.01 |  |  |  |  | 
3 | COC(=O)NCCOc1ccc(C[C@H](NC(=O)O[C@H]2CO[C@H]3OCC[C@H]32)[C@H](O)CN(CC(C)C)S(=O)(=O)c2ccc3c(c2)OCO3)cc1 [Compound 226, (3R,3aS,6aR)-hexahydrofuro[2,3-b]furan-3-yl (1S,2R)-3-[(1,3-benzodioxol-5-ylsulfonyl)(isobutyl)amino]-2-hydroxy-1-(4-{2-[(methoxycarbonyl)amino]ethoxy}benzyl)propylcarbamate] |  | < 0.001 |  | < 0.001 | 0.001 to 0.01 |  |  | 
4 | CC(=O)NCCCOc1ccc(C[C@H](NC(=O)O[C@H]2CO[C@H]3OCC[C@H]32)[C@H](O)CN(CC(C)C)S(=O)(=O)c2ccc3c(c2)OCO3)cc1 [Compound 229] |  |  |  |  |  | 0.001 to 0.01 | 0.01 to 0.1 | 0.001 to 0.01
5 | CC(=O)NCCCCOc1ccc(C[C@H](NC(=O)O[C@H]2CO[C@H]3OCC[C@H]32)[C@H](O)CN(CC(C)C)S(=O)(=O)c2ccc3c(c2)OCO3)cc1 [Compound 230] |  |  |  |  |  | 0.001 to 0.01 | 0.01 to 0.1 | 0.001 to 0.01
6 | CC(C)CN(C[C@@H](O)[C@H](Cc1ccc(OCCCNS(C)(=O)=O)cc1)NC(=O)O[C@H]1CO[C@H]2OCC[C@H]21)S(=O)(=O)c1ccc2c(c1)OCO2 [Compound 251] |  |  |  |  |  | 0.001 to 0.01 | 0.01 to 0.1 | 0.001 to 0.01
7 | CC(C)CN(C[C@@H](O)[C@H](Cc1ccc(OCCNC(=O)N(C)C)cc1)NC(=O)O[C@H]1CO[C@H]2OCC[C@H]21)S(=O)(=O)c1ccc2c(c1)OCO2 [Compound 253] |  |  |  |  |  | 0.001 to 0.01 | 0.01 to 0.1 | 0.001 to 0.01
8 | CC(C)CN(C[C@@H](O)[C@H](Cc1ccc(OCCCNC(=O)c2ccoc2)cc1)NC(=O)O[C@H]1CO[C@H]2OCC[C@H]21)S(=O)(=O)c1ccc2c(c1)OCO2 [Compound 261, (3R,3aS,6aR)-hexahydrofuro[2,3-b]furan-3-yl (1S,2R)-3-[(1,3-benzodioxol-5-ylsulfonyl)(isobutyl)amino]-1-{4-[3-(3-furoylamino)propoxy]benzyl}-2-hydroxypropylcarbamate] | 0.001 to 0.01 | 0.001 to 0.01 | 0.001 to 0.01 |  |  |  |  | 
9 | CC(C)CN(C[C@@H](O)[C@H](Cc1ccc(OCCN/C(=N/C#N)Oc2ccccc2)cc1)NC(=O)O[C@H]1CO[C@H]2OCC[C@H]21)S(=O)(=O)c1ccc2c(c1)OCO2 [Compound 262, (3R,3aS,6aR)-hexahydrofuro[2,3-b]furan-3-yl (1S,2R)-3-[(1,3-benzodioxol-5-ylsulfonyl)(isobutyl)amino]-1-[4-(2-{[(E and/or Z)-(cyanoimino)(phenoxy)methyl]amino}ethoxy)benzyl]-2-hydroxypropylcarbamate] |  | 0.001 to 0.01 |  | 0.001 to 0.01 | 0.001 to 0.01 |  |  | 
10 | CC(C)CN(C[C@@H](O)[C@H](Cc1ccc(OCCCCN/C(=N/C#N)Oc2ccccc2)cc1)NC(=O)O[C@H]1CO[C@H]2OCC[C@H]21)S(=O)(=O)c1ccc2c(c1)OCO2 [Compound 263, (3R,3aS,6aR)-hexahydrofuro[2,3-b]furan-3-yl (1S,2R)-3-[(1,3-benzodioxol-5-ylsulfonyl)(isobutyl)amino]-1-[4-(4{[(E and/or Z)-(cyanoimino)(phenoxy)methyl]amino}butoxy)benzyl]-2-hydroxypropylcarbamate] | 0.001 to 0.01 | 0.001 to 0.01 | 0.001 to 0.01 |  |  |  |  | 
11 | CC(C)CN(C[C@@H](O)[C@H](Cc1ccc(OCCCNc2ccc(C#N)cn2)cc1)NC(=O)O[C@H]1CO[C@H]2OCC[C@H]21)S(=O)(=O)c1ccc2c(c1)OCO2 [Compound 270, (3R,3aS,6aR)-hexahydrofuro[2,3-b]furan-3-yl (1S,2R)-3-[(1,3-benzodioxol-5-ylsulfonyl)(isobutyl)amino]-1-(4-{3[(5-cyano-2-pyridinyl)amino]propoxy}benzyl)-2-hydroxypropylcarbamate] | 0.001 to 0.01 | 0.001 to 0.01 | 0.001 to 0.01 |  |  |  |  | 
12 | CC(C)CN(C[C@@H](O)[C@H](Cc1ccc(OCCCNc2ccc(C(F)(F)F)cn2)cc1)NC(=O)O[C@H]1CO[C@H]2OCC[C@H]21)S(=O)(=O)c1ccc2c(c1)OCO2 [Compound 272, (3R,3aS,6aR)-hexahydrofuro[2,3-b]furan-3-yl (1S,2R)-3-[(1,3-benzodioxol-5-ylsulfonyl)(isobutyl)amino]-2-hydroxy-1-[4-(3-{[5-(trifluoromethyl)-2-pyridinyl]amino}propoxy)benzyl]propylcarbamate] | 0.001 to 0.01 | 0.001 to 0.01 | 0.001 to 0.01 |  |  |  |  | 
13 | CC(C)CN(C[C@@H](O)[C@H](Cc1ccc(OCCCN(C)C)cc1)NC(=O)O[C@H]1CO[C@H]2OCC[C@H]21)S(=O)(=O)c1ccc2c(c1)OCO2 [Compound 274, (3R,3aS,6aR)-hexahydrofuro[2,3-b]furan-3-yl (1S,2R)-3-[(1,3-benzodioxol-5-ylsulfonyl)(isobutyl)amino]-1-{4-[3-(dimethylamino)propoxy]benzyl}-2-hydroxypropylcarbamate] | 0.001 to 0.01 | 0.01 to 0.1 | 0.01 to 0.1 |  |  |  |  | 
14 | CC(C)CN(C[C@@H](O)[C@H](Cc1ccc(OCCCCN(C)C)cc1)NC(=O)O[C@H]1CO[C@H]2OCC[C@H]21)S(=O)(=O)c1ccc2c(c1)OCO2 [Compound 275, (3R,3aS,6aR)-hexahydrofuro[2,3-b]furan-3-yl (1S,2R)-3-[(1,3-benzodioxol-5-ylsulfonyl)(isobutyl)amino]-1-{4-[4-(dimethylamino)butoxy]benzyl}-2-hydroxypropylcarbamate] | 0.001 to 0.01 | 0.01 to 0.1 | 0.01 to 0.1 |  |  |  |  | 
15 | CC(C)CN(C[C@@H](O)[C@H](Cc1ccc(OCCCN2CCSC2)cc1)NC(=O)O[C@H]1CO[C@H]2OCC[C@H]21)S(=O)(=O)c1ccc2c(c1)OCO2 [Compound 277, (3R,3aS,6aR)-hexahydrofuro[2,3-b]furan-3-yl (1S,2R)-3-[(1,3-benzodioxol-5-ylsulfonyl)(isobutyl)amino]-2-hydroxy-1-{4-[3-(1,3-thiazolidin-3-yl)propoxy]benzyl}propylcarbamate] | 0.001 to 0.01 | 0.001 to 0.01 | 0.001 to 0.01 |  |  |  |  | 
16 | CC(C)CN(C[C@@H](O)[C@H](Cc1ccc(OCCCn2ccnc2)cc1)NC(=O)O[C@H]1CO[C@H]2OCC[C@H]21)S(=O)(=O)c1ccc2c(c1)OCO2 [Compound 278, (3R,3aS,6aR)-hexahydrofuro[2,3-b]furan-3-yl (1S,2R)-3-[(1,3-benzodioxol-5-ylsulfonyl)(isobutyl)amino]-2-hydroxy-1-{4-[3-(1H-imidazol-1-yl)propoxy]benzyl}propylcarbamate] | 0.001 to 0.01 | 0.01 to 0.1 | 0.001 to 0.01 |  |  |  |  | 
17 | CC(C)CN(C[C@@H](O)[C@H](Cc1ccc(OCCCN2CCCC2)cc1)NC(=O)O[C@H]1CO[C@H]2OCC[C@H]21)S(=O)(=O)c1ccc2c(c1)OCO2 [Compound 280, (3R,3aS,6aR)-hexahydrofuro[2,3-b]furan-3-yl (1S,2R)-3-[(1,3-benzodioxol-5-ylsulfonyl)(isobutyl)amino]-2-hydroxy-1-{4-[3-(1-pyrrolidinyl)propoxy]-3-benzyl}propylcarbamate] |  |  |  |  |  | 0.001 to 0.01 | 0.01 to 0.1 | 0.001 to 0.01

Reference: patent publication US8455497B2, “Inhibitors of aspartyl protease” (Vertex Pharmaceuticals Incorporated, priority 1999, dated 2013)
